Experimental data taken from the supplement of paper PMC10307832.

What was measured:
Assay in all cases: relative viability (nuclei count vs DMSO), 5 days (fraction); higher = more cells survive
201T = test system: 201T
How it was run: (§1)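 Five library-drug doses in √10 steps were combined with a fixed anchor-drug dose, or a single drug was given alone, by pin tool to lung cancer cell lines in 1536-well plates the day after seeding. Nuclei were stained and counted after 5 days. Relative viability is the nuclei count in treated wells over that in vehicle wells, taken as the median of duplicate plates.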

BEN = test system: BEN
How it was run: as §1

CAL-12T = test system: CAL-12T
How it was run: as §1

HCC-78 = test system: HCC-78
How it was run: as §1

HOP-62 = test system: HOP-62
How it was run: as §1

LCLC-97TM1 = test system: LCLC-97TM1
How it was run: as §1

LOU-NH91 = test system: LOU-NH91
How it was run: as §1

NCI-H1355 = test system: NCI-H1355
How it was run: as §1

NCI-H1395 = test system: NCI-H1395
How it was run: as §1

NCI-H1563 = test system: NCI-H1563
How it was run: as §1

NCI-H1651 = test system: NCI-H1651
How it was run: as §1

NCI-H1793 = test system: NCI-H1793
How it was run: as §1

NCI-H1915 = test system: NCI-H1915
How it was run: as §1

NCI-H1944 = test system: NCI-H1944
How it was run: as §1

NCI-H2126 = test system: NCI-H2126
How it was run: as §1

NCI-H2347 = test system: NCI-H2347
How it was run: as §1

NCI-H3122 = test system: NCI-H3122
How it was run: as §1

NCI-H322M = test system: NCI-H322M
How it was run: as §1

NCI-H441 = test system: NCI-H441
How it was run: as §1

NCI-H650 = test system: NCI-H650
How it was run: as §1

NCI-H838 = test system: NCI-H838
How it was run: as §1

SK-LU-1 = test system: SK-LU-1
How it was run: as §1

SW 1573 = test system: SW 1573
How it was run: as §1

Question: For `Nc1cccc2c1CN(C1CCC(=O)NC1=O)C2=O` (centres undefined) [Lenalidomide] + Cc1nc(NC(=O)N2CCC[C@H]2C(N)=O)sc1-c1ccnc(C(C)(C)C(F)(F)F)c1 [Alpelisib] (partner 2 µM), which relative viability (201T; first compound 0.253 µM) is on record?
Answer: 1.11

Question: What about the relative viability (201T; first compound 0.8 µM) of the same compound?
Answer: 1.15

Question: What about the relative viability (201T; first compound 2.53 µM) of the same compound?
Answer: 1.06

Question: And the relative viability (201T; first compound 8 µM)?
Answer: 0.984

Question: And the relative viability (BEN; first compound 0.253 µM)?
Answer: 1.05

Question: And the relative viability (BEN; first compound 0.8 µM)?
Answer: 1.01

Question: What about the relative viability (BEN; first compound 2.53 µM) of the same compound?
Answer: 1.16

Question: And the relative viability (BEN; first compound 8 µM)?
Answer: 0.788

Question: And the relative viability (CAL-12T; first compound 0.253 µM)?
Answer: 1.09

Question: What about the relative viability (CAL-12T; first compound 0.8 µM) of the same compound?
Answer: 1.33

Question: And the relative viability (CAL-12T; first compound 2.53 µM)?
Answer: 1.52

Question: What about the relative viability (CAL-12T; first compound 8 µM) of the same compound?
Answer: 1.36

Question: What about the relative viability (HCC-78; first compound 0.253 µM) of the same compound?
Answer: 0.381

Question: And the relative viability (HCC-78; first compound 0.8 µM)?
Answer: 0.339

Question: What about the relative viability (HCC-78; first compound 2.53 µM) of the same compound?
Answer: 0.314

Question: What about the relative viability (HCC-78; first compound 8 µM) of the same compound?
Answer: 0.209

Question: What about the relative viability (HOP-62; first compound 0.253 µM) of the same compound?
Answer: 0.983

Question: What about the relative viability (HOP-62; first compound 0.8 µM) of the same compound?
Answer: 1.08

Question: And the relative viability (HOP-62; first compound 2.53 µM)?
Answer: 0.984

Question: And the relative viability (HOP-62; first compound 8 µM)?
Answer: 0.828

Question: And the relative viability (LCLC-97TM1; first compound 0.8 µM)?
Answer: 0.236

Question: What about the relative viability (LCLC-97TM1; first compound 2.53 µM) of the same compound?
Answer: 0.308

Question: What about the relative viability (LCLC-97TM1; first compound 8 µM) of the same compound?
Answer: 0.164

Question: What about the relative viability (LOU-NH91; first compound 0.253 µM) of the same compound?
Answer: 0.686

Question: What about the relative viability (LOU-NH91; first compound 0.8 µM) of the same compound?
Answer: 0.762

Question: And the relative viability (LOU-NH91; first compound 2.53 µM)?
Answer: 0.73

Question: What about the relative viability (LOU-NH91; first compound 8 µM) of the same compound?
Answer: 0.662

Question: And the relative viability (NCI-H1355; first compound 0.253 µM)?
Answer: 0.806

Question: What about the relative viability (NCI-H1355; first compound 0.8 µM) of the same compound?
Answer: 0.645

Question: What about the relative viability (NCI-H1355; first compound 2.53 µM) of the same compound?
Answer: 0.848

Question: And the relative viability (NCI-H1355; first compound 8 µM)?
Answer: 0.454

Question: And the relative viability (NCI-H1395; first compound 0.253 µM)?
Answer: 0.946

Question: And the relative viability (NCI-H1395; first compound 2.53 µM)?
Answer: 1.06

Question: And the relative viability (NCI-H1395; first compound 8 µM)?
Answer: 0.948

Question: And the relative viability (NCI-H1563; first compound 0.253 µM)?
Answer: 0.843

Question: What about the relative viability (NCI-H1563; first compound 0.8 µM) of the same compound?
Answer: 0.908

Question: What about the relative viability (NCI-H1563; first compound 2.53 µM) of the same compound?
Answer: 0.829

Question: What about the relative viability (NCI-H1563; first compound 8 µM) of the same compound?
Answer: 0.87

Question: What about the relative viability (NCI-H1651; first compound 0.253 µM) of the same compound?
Answer: 0.894

Question: What about the relative viability (NCI-H1651; first compound 0.8 µM) of the same compound?
Answer: 1.14

Question: What about the relative viability (NCI-H1651; first compound 2.53 µM) of the same compound?
Answer: 1.04

Question: What about the relative viability (NCI-H1651; first compound 8 µM) of the same compound?
Answer: 1.07

Question: What about the relative viability (NCI-H1793; first compound 0.253 µM) of the same compound?
Answer: 0.858

Question: And the relative viability (NCI-H1793; first compound 0.8 µM)?
Answer: 0.828

Question: And the relative viability (NCI-H1793; first compound 2.53 µM)?
Answer: 0.673

Question: What about the relative viability (NCI-H1793; first compound 8 µM) of the same compound?
Answer: 0.57

Question: What about the relative viability (NCI-H1915; first compound 0.253 µM) of the same compound?
Answer: 0.984

Question: And the relative viability (NCI-H1915; first compound 0.8 µM)?
Answer: 1.07

Question: What about the relative viability (NCI-H1915; first compound 2.53 µM) of the same compound?
Answer: 1.13

Question: What about the relative viability (NCI-H1915; first compound 8 µM) of the same compound?
Answer: 1.07

Question: And the relative viability (NCI-H1944; first compound 0.253 µM)?
Answer: 0.885

Question: What about the relative viability (NCI-H1944; first compound 0.8 µM) of the same compound?
Answer: 0.934

Question: And the relative viability (NCI-H1944; first compound 2.53 µM)?
Answer: 0.897

Question: What about the relative viability (NCI-H1944; first compound 8 µM) of the same compound?
Answer: 0.654

Question: And the relative viability (NCI-H2126; first compound 0.253 µM)?
Answer: 0.735

Question: What about the relative viability (NCI-H2126; first compound 0.8 µM) of the same compound?
Answer: 0.75

Question: And the relative viability (NCI-H2126; first compound 2.53 µM)?
Answer: 0.646

Question: And the relative viability (NCI-H2126; first compound 8 µM)?
Answer: 0.55

Question: What about the relative viability (NCI-H2347; first compound 0.253 µM) of the same compound?
Answer: 1.06

Question: What about the relative viability (NCI-H2347; first compound 0.8 µM) of the same compound?
Answer: 0.957

Question: And the relative viability (NCI-H2347; first compound 2.53 µM)?
Answer: 0.964

Question: And the relative viability (NCI-H2347; first compound 8 µM)?
Answer: 0.875

Question: And the relative viability (NCI-H3122; first compound 0.253 µM)?
Answer: 0.779

Question: And the relative viability (NCI-H3122; first compound 0.8 µM)?
Answer: 0.961

Question: And the relative viability (NCI-H3122; first compound 2.53 µM)?
Answer: 0.797

Question: What about the relative viability (NCI-H3122; first compound 8 µM) of the same compound?
Answer: 0.659

Question: What about the relative viability (NCI-H322M; first compound 0.253 µM) of the same compound?
Answer: 0.745

Question: What about the relative viability (NCI-H322M; first compound 0.8 µM) of the same compound?
Answer: 0.887

Question: And the relative viability (NCI-H322M; first compound 2.53 µM)?
Answer: 0.837

Question: And the relative viability (NCI-H322M; first compound 8 µM)?
Answer: 0.66

Question: And the relative viability (NCI-H441; first compound 0.253 µM)?
Answer: 0.74

Question: What about the relative viability (NCI-H441; first compound 0.8 µM) of the same compound?
Answer: 0.663

Question: And the relative viability (NCI-H441; first compound 2.53 µM)?
Answer: 0.917

Question: What about the relative viability (NCI-H441; first compound 8 µM) of the same compound?
Answer: 0.775

Question: And the relative viability (NCI-H650; first compound 0.253 µM)?
Answer: 1.22

Question: What about the relative viability (NCI-H650; first compound 2.53 µM) of the same compound?
Answer: 1.41

Question: And the relative viability (NCI-H650; first compound 8 µM)?
Answer: 1.15

Question: And the relative viability (NCI-H838; first compound 0.253 µM)?
Answer: 0.97

Question: What about the relative viability (NCI-H838; first compound 0.8 µM) of the same compound?
Answer: 1

Question: And the relative viability (NCI-H838; first compound 2.53 µM)?
Answer: 1.25

Question: And the relative viability (NCI-H838; first compound 8 µM)?
Answer: 0.896

Question: And the relative viability (SK-LU-1; first compound 0.253 µM)?
Answer: 0.913

Question: What about the relative viability (SK-LU-1; first compound 0.8 µM) of the same compound?
Answer: 0.999

Question: And the relative viability (SK-LU-1; first compound 2.53 µM)?
Answer: 1.29

Question: What about the relative viability (SK-LU-1; first compound 8 µM) of the same compound?
Answer: 1.07

Question: And the relative viability (SW 1573; first compound 0.253 µM)?
Answer: 0.775

Question: And the relative viability (SW 1573; first compound 0.8 µM)?
Answer: 0.921

Question: And the relative viability (SW 1573; first compound 2.53 µM)?
Answer: 1.01

Question: And the relative viability (SW 1573; first compound 8 µM)?
Answer: 0.696
